Experiments:
[1] = biological target: T1, Tyrosinase (Mus musculus) (UniProt P11344); assay: Inhibition of tyrosinase in mouse B16F10 cells assessed as rate of L-DOPA oxidation at 0.2 uM after 24 hrs by ELISA in presence of alpha-MSH (reference value: […]%); format: cell-based; design: scale not given: the % may be the effect or the level left; conditions: B16-F10
T1 sequence (whole entry): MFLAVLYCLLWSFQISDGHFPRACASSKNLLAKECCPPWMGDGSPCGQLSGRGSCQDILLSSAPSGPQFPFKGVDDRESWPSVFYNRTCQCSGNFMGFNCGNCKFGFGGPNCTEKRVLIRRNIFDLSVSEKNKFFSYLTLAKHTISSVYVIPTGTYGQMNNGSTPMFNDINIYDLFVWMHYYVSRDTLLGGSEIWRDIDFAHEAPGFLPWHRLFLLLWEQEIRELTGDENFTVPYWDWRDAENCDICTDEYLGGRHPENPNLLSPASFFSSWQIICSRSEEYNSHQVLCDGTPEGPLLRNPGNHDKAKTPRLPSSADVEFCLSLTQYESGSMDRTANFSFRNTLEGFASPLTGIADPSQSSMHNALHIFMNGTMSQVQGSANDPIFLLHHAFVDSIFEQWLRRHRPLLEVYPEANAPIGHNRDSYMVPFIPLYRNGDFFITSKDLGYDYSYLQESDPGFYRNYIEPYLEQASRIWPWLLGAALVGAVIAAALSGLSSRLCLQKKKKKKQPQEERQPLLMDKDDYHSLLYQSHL

B16-F10 [2] = assay: Inhibition of melanogenesis in mouse B16F10 cells assessed as melanin content at 2.5 uM after 24 hrs in presence of alpha-MSH (reference value: 241.87%); format: functional; design: scale not given: the % may be the effect or the level left
[3] = Cytotoxicity against mouse B16F10 cells assessed as cell viability at 5 uM after 48 hrs by MTT assay; format: cell-based, B16-F10; conditions: read-out: Activity
Tyrosinase [4] = biological target: T2, Tyrosinase (Agaricus bisporus, UniProt O42713); assay: Competitive inhibition of mushroom tyrosinase assessed as decrease in rate of dopachrome formation using L-tyrosine as substrate at 1.25 uM by Lineweaver-Burk plot analysis
T2 sequence (O42713 whole entry): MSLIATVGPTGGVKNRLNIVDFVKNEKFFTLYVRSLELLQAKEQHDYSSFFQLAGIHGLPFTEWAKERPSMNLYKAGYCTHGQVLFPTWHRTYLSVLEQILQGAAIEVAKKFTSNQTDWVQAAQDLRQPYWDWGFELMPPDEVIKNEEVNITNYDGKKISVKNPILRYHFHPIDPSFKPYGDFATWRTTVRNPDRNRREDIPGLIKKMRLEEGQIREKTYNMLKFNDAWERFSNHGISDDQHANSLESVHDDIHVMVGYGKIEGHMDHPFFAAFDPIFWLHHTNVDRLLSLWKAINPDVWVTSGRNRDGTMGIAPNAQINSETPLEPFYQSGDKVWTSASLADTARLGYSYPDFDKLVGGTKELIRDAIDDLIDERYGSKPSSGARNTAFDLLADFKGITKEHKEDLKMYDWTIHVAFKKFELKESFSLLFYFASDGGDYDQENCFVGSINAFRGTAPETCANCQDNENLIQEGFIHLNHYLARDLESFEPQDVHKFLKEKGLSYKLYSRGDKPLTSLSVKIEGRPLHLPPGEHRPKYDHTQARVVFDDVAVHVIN

[5] = Cytotoxicity against mouse B16F10 cells assessed as cell viability at 2.5 uM after 48 hrs by MTT assay; format: cell-based, B16-F10; conditions: read-out: Activity
Tyrosinase [6] = biological target: T2, Tyrosinase; assay: Competitive inhibition of mushroom tyrosinase assessed as decrease in rate of dopachrome formation using L-tyrosine as substrate at 20 uM by Lineweaver-Burk plot analysis
[7] = Cytotoxicity against mouse B16F10 cells assessed as cell viability at 10 uM after 48 hrs by MTT assay; format: cell-based, B16-F10; conditions: read-out: Activity
B16-F10 [8] = assay: Inhibition of melanogenesis in mouse B16F10 cells assessed as melanin content at 10 uM after 24 hrs in presence of alpha-MSH (reference value: 241.87%); format: functional; design: scale not given: the % may be the effect or the level left
B16-F10 [9] = assay: Inhibition of melanogenesis in mouse B16F10 cells assessed as melanin content at 0.2 uM after 24 hrs in presence of alpha-MSH (reference value: 241.87%); format: functional; design: scale not given: the % may be the effect or the level left
Tyrosinase [10] = biological target: T2, Tyrosinase; assay: Inhibition of mushroom tyrosinase assessed as decrease in dopachrome production using L-tyrosine as substrate by spectrophotometric analysis
[11] = biological target: T1, Tyrosinase (Mus musculus); assay: Inhibition of tyrosinase in mouse B16F10 cells assessed as rate of L-DOPA oxidation at 2.5 uM after 24 hrs by ELISA in presence of alpha-MSH (reference value: […]%); format: cell-based; design: scale not given: the % may be the effect or the level left; conditions: B16-F10
[12] = biological target: T1, Tyrosinase (Mus musculus); assay: Inhibition of tyrosinase in mouse B16F10 cells assessed as rate of L-DOPA oxidation at 5 uM after 24 hrs by ELISA in presence of alpha-MSH (reference value: […]%); format: cell-based; design: scale not given: the % may be the effect or the level left; conditions: B16-F10
[13] = biological target: T1, Tyrosinase (Mus musculus); assay: Inhibition of tyrosinase in mouse B16F10 cells assessed as rate of L-DOPA oxidation at 1 uM after 24 hrs by ELISA in presence of alpha-MSH (reference value: […]%); format: cell-based; design: scale not given: the % may be the effect or the level left; conditions: B16-F10
[14] = Cytotoxicity against mouse B16F10 cells assessed as cell viability at 1 uM after 48 hrs by MTT assay; format: cell-based, B16-F10; conditions: read-out: Activity
B16-F10 [15] = assay: Inhibition of melanogenesis in mouse B16F10 cells assessed as melanin content at 1 uM after 24 hrs in presence of alpha-MSH (reference value: 241.87%); format: functional; design: scale not given: the % may be the effect or the level left
B16-F10 [16] = assay: Inhibition of melanogenesis in mouse B16F10 cells assessed as melanin content at 5 uM after 24 hrs in presence of alpha-MSH (reference value: 241.87%); format: functional; design: scale not given: the % may be the effect or the level left
[17] = Cytotoxicity against mouse B16F10 cells assessed as cell viability at 0.2 uM after 48 hrs by MTT assay; format: cell-based, B16-F10; conditions: read-out: Activity
[18] = biological target: T1, Tyrosinase (Mus musculus); assay: Inhibition of tyrosinase in mouse B16F10 cells assessed as rate of L-DOPA oxidation at 10 uM after 24 hrs by ELISA in presence of alpha-MSH (reference value: […]%); format: cell-based; design: scale not given: the % may be the effect or the level left; conditions: B16-F10
B16-F10 [19] = assay: Inhibition of melanogenesis in mouse B16F10 cells assessed as decrease in melanin content after 24 hrs in presence of alpha-MSH; format: functional, cell-based

Work on COc1ccc(/C=C2\CC(=O)NC2=O)cc1O yielded an Activity [1] of 224%, an Activity (B16-F10 [2]) of 113.11% and a viability at 48 h, 5 µM [3] of 98.1%. For the same compound, the Ki (Tyrosinase [4]) was 424 nM, the viability at 48 h, 2.5 µM [5] was 98.4% and the Ki (Tyrosinase [6]) was 1820 nM. It also gave a viability at 48 h, 10 µM [7] of 97.8%, an Activity (B16-F10 [8]) of 99.49% and an Activity (B16-F10 [9]) of 236.67%. For the same compound, the IC50 (Tyrosinase [10]) was 2230 nM, the Activity [11] was 103% and the Activity [12] was 101%. It also gave an Activity [13] of 177%, a viability at 48 h, 1 µM [14] of 98.9% and an Activity (B16-F10 [15]) of 231.69%. For the same compound, the Activity (B16-F10 [16]) was 103.74%, the viability at 48 h, 0.2 µM [17] was 99.5% and the Activity [18] was 97.1%. The inhibition (B16-F10 [19]) was “Dose-dependent effect”.

— ChEMBL document CHEMBL3217466, “Synthesis and biological activity of hydroxybenzylidenyl pyrrolidine-2,5-dione derivatives as new potent inhibitors of tyrosinase” (Medchemcomm, 2011)
